Data reported in patent US12274705B2, “Composition comprising CYP4A-inhibiting compound as active ingredient for preventing or treating metabolic diseases” (Korea Basic Science Institute, priority 2018, dated 2025).

What was measured:
HepG2 cells [1] = experiment: Fat accumulation inhibitory activity in hepatocytes (palmitate, Nile-Red); format: cell-based, human; conditions: 5 μM compound; palmitate 72 hours; compared with positive control HET0016
Method: After culturing HepG2 cells, a human liver cell line, in a high-concentration DMEM medium (Dulbecco's modified Eagle's medium, glucose 25 mM) containing 10% fetal bovine serum (FBS), an experiment was performed to measure fat accumulation by the following method.
First, HepG2 cells were grown to 5×10^3 cells/well in a 96-well plate (black, clear bottom culture plate) by the above method, and 5 μM of each compound screened in Example 1 was added thereto, followed by incubation for 6 hours. Here, palmitate, a fatty acid that induces fat accumulation in hepatocytes, is added, and then placed in an incubator at 37° C. for 72 hours to react. Thereafter, 4% paraformaldehyde was added and reacted at room temperature for 15 minutes to fix, and then Nile-Red solution was added, light was blocked, and reaction was performed at 37° C. for 10 minutes. After the reaction time, fluorescence was measured with a microplate reader (Excitation: 530 nm, Emission: 635 nm).

HepG2 cells [2] = experiment: Active oxygen (ROS) scavenging ability under ER stress (H2DCFDA); format: cell-based, human; conditions: 5 μM compound; for amount of ROS: Thapsigargin or Tunicamycin; for inhibition of ROS production and removal of ROS: Thapsigargin-treated group, compared with HET0016
Method: After culturing HepG2 cells, a human liver cell line, in high-glucose DMEM medium (Dulbecco's modified Eagle's medium, glucose 25 mM) in the presence of 10% fetal bovine serum (FBS), an experiment was performed to measure the ability to remove reactive oxygen species by the following method.
First, HepG2 cells were grown to 1×10^4 cells/well in a 96-well plate (black, clear bottom culture plate) by the above method, and then 5 μM of each compound screened in Example 1 was added and incubated for 6 hours. After adding thapsigargin or tunicamycin to induce endoplasmic reticulum stress, the reaction was put in an incubator for 24 hours. After that, 5 μM H2DCFDA (cell-permeant 2′,7′-dichlorodihydrofluorescein diacetate) was added and reacted for 30 minutes in an incubator at 37° C. Thereafter, after washing with PBS, it was placed in an incubator at 37° C. for 30 minutes and waited for luminescence to occur. Thereafter, fluorescence was measured with a microplate reader (Excitation: 488 nm, Emission: 508 nm).

HepG2 cells [3] = experiment: Glucose absorption promoting effect (2-NBDG uptake) under ER stress; format: cell-based, human; conditions: 5 μM compound
Method: HepG2 cells, a human liver cell line, were cultured in a high-glucose DMEM (Dulbecco's modified Eagle's medium, glucose 25 mM) medium in the presence of 10% fetal bovine serum (FBS), and then glucose uptake experiments were performed as follows.
First, HepG2 cells were grown to 1×10^4 cells/well in a 96-well plate (black, clear bottom culture plate) by the above method, and then 5 μM of each compound screened in Example 1 was added and incubated for 6 hours. Here, thapsigargin or tunicamycin, which induces endoplasmic reticulum stress, was added to hepatocytes, and then placed in an incubator at 37° C. for 24 hours to react. After that, insulin and 2-NBDG (2-(N-(7-Nitrobenz-2-oxa-1,3-diazol-4-yl)Amino)-2-Deoxyglucose) were added and reacted in an incubator at 37° C. for 3 hours, and after washing with PBS (phosphate buffered saline), fluorescence was measured with a microplate reader (Excitation: 488 nm, Emission: 508 nm).

CYP4A (CYP4A11) = target: T1, CYP4A (CYP4A11) (Homo sapiens, UniProt Q02928); experiment: CYP4A activity inhibition, Luciferin-4A luminescence with CYP4A expressing HepG2 cell lysate; format: biochemical; conditions: FIG. 1: all compounds at 5 μM; FIG. 2: by concentration; compared with HET0016
T1 construct: expressed in transfected cells; host or cells: HepG2 (human liver cell line), RIPA lysate
T1 sequence (Q02928 5-519): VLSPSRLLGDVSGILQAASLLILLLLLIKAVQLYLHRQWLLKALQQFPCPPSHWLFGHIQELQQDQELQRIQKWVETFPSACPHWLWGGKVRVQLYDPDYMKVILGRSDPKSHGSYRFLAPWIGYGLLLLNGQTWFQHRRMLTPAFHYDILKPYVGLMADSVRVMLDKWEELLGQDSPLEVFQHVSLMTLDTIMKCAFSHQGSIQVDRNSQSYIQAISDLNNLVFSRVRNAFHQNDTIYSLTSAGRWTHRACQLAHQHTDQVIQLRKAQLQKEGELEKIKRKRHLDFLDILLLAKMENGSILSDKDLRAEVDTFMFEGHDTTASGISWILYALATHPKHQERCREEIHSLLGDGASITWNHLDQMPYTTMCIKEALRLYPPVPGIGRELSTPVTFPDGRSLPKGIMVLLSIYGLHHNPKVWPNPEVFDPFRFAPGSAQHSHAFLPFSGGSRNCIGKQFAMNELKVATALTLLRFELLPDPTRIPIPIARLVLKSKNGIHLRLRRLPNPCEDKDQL
Method: CYP4A11 DNA (GenBank: S67580.1) was transfected into HepG2 cells, a human liver cell line, and cultured in an incubator for 24 hours so that the protein was expressed. After that, cells were pulverized by adding RIPA buffer (20 mM Tris-HCl (pH 7.5), 150 mM NaCl, 1 mM Na2EDTA, 1 mM EGTA, 1% NP-40, 1% sodium deoxycholate, 2.5 mM sodium pyrophosphate, 1 mM b-glycerophosphate, 1 mM Na3VO4, 1 μg/ml leupeptin) to extract proteins, and then CYP4A activity experiment and compound screening were performed as follows. […]
After putting it in the NADPH Regeneration system (20× sol.A, 100× sol.B in water, Cal. Number: D399, Thermo Fisher SCIENTIFIC), leave it at room temperature for 1 hour to allow the CYP4A reaction to occur sufficiently, and CYP4A reaction is finished by adding Luciferin Detection reagent, and induce a luminescence reaction to occur, and the reaction was carried out at room temperature for 20 minutes. The degree of inhibition of CYP4A activity was measured by comparing the luminescence values from each well with a microplate reader.

[4] = Thapsigargin or Tunicamycin, compared with positive control HET0016
[5] = Tunicamycin-treated group, compared with HET0016

Row | Compound | fat accumulation in liver cells (Nile-Red fluorescence) (HepG2 cells [1]) | amount of ROS (HepG2 cells [2]) | inhibition of ROS production and removal of ROS (HepG2 cells [2]) | glucose absorption promoting effect (2-NBDG fluorescence) (HepG2 cells [3]; [4]) | glucose absorption promoting effect (2-NBDG fluorescence) (HepG2 cells [3]; [5]) | CYP4A inhibitory ability (luminescence) (CYP4A (CYP4A11))
1 | CC(=O)Nc1ccc(S(=O)(=O)N2CCN(c3ccnc4cc(Cl)ccc34)CC2)cc1 [#18-1, N-(4-((4-(7-chloroquinolin-4-yl)piperazin-1-yl)sulfonyl)phenyl)acetamide] | suppressed to a degree similar to that of the positive control group (HET0016) | significantly decreased | better inhibition of ROS production and removal of ROS than HET0016 | significant to the same or higher degree than that of the positive control group (HET0016) | more effective in promoting glucose absorption than the known HET0016 compound | particularly excellent among the selected compounds
2 | CC(=O)Nc1ccc(S(=O)(=O)N2CCN(c3cc(C)nc4ccccc34)CC2)cc1 [#18-2, N-(4-((4-(2-methylquinolin-4-yl)piperazin-1-yl)sulfonyl)phenyl)acetamide] | suppressed to a degree similar to that of the positive control group (HET0016) | significantly decreased | better inhibition of ROS production and removal of ROS than HET0016 | significant to the same or higher degree than that of the positive control group (HET0016) | more effective in promoting glucose absorption than the known HET0016 compound | particularly excellent among the selected compounds
